In brackets after ≈: the same amount, converted by molar mass. Like-named read-outs stand apart in the source and are kept apart here.
Experiments:
[1] = tested on: clinical isolates of MRSA; experiment: MIC by broth serial-dilution against 48 clinical isolates of MRSA; assay type: cell-based, methicillin-resistant Staphylococcus aureus
Description: The tests against 48 clinical isolates of MRSA from dairy farms in 4 different provinces in China[37] were conducted in triplicate, using broth serial-dilution method in 96-well plates according to CLSI reference methods. Briefly, EDT and tiamulin fumarate used as referent drug were dissolved in 25% dimethyl sulfoxide (DMSO) to a solution with concentration of 64 μg/mL. The obtained 100 μL solutions were then added into the first column of the 96-well plate, and diluted to the tenth well with serial twofold dilutions. The last two wells were used as positive controls. The 100 μL bacterial suspension was diluted in MHB to give a final organism density of to 10^5 ~ 10^6 colony-forming unit (CFU) per 1 mL and added to all the wells, followed by incubating at 37 °C for 24 h. […] The results were expressed as an average of the MICs obtained from three independent experiments.

MRSA-337371 = experiment: Post-antibiotic effect (PAE) test, viable counting; assay type: cell-based, methicillin-resistant Staphylococcus aureus; conditions: 1 h exposure
Description: The PAE of EDT against MRSA-337371 was determined using a standard viable counting method. We selected 1 × , 2 × , 4 × and 8 × MICs of EDT and tiamulin (0.0313 and 0.5 μg/mL, respectively), to conduct PAE test on MRSA strains. The strains (1 × 10^5 CFU/mL) were placed in MHB broth test tubes containing the above four concentrations of EDT and tiamulin, respectively, and cultured in a shaking bed at 37 °C for 1 h, followed by centrifuging for 10 min at 4000 r/min. The supernatants were discarded and the precipitations were dissolved with 2 mL normal saline to centrifuge. The same procedure was repeated three times. The final bacterial precipitates were taken and cultured in MHB broth with the initial concentration of 5.5 Log CFU/mL at 37 °C in a shaking bed. Samples were then taken at 0, 1, 2, 3, 4, 5, 6, 8, 12, 18 and 24 h to dilute 10–100,000 times and the 10 μL dilutions were evenly smear on MHA plate medium to culture at 37 °C for 48 h. Finally, the average numbers of colonies on the plates were obtained and the PAE values were calculated as hour using equation PAE = T − C, in which T was the time required for the increase of 1 log10 CFU/mL after the removal of drugs and C was the time required for the number of MRSA in the control tube to increase by 1 log10 CFU/mL. Experiments were performed in triplicate.

[2] = tested on: GFP expression in S. aureus ATCC 29,213; experiment: Green fluorescent protein (GFP) inhibition assay; assay type: cell-based, Staphylococcus aureus; conditions: 1 and 4 μM, co-incubation 4 h, fluorescence microscopy
Description: The inhibition assay against GFP expression was performed according to our previous report[41] with minor modification. Plasmids carried erythromycin resistant genes were labeled with GFP and electrotransformed into S. aureus. After screenings using erythromycin, S. aureus strain expressing GFP was then obtained and grown to mid-logarithmic phase, followed by collecting centrifugally and re-suspending with PBS buffer. The obtained suspensions were co-incubated with EDT and tiamulin with the final concentrations of 1 and 4 μM, respectively, for 4 h at 37 °C. The cells were subsequently collected by centrifugation to perform imaging using fluorescence microscopy after re-suspending with PBS buffer.

[3] = Cytotoxicity assay (CCK-8), HepG2; assay type: cell-based; conditions: human, HepG2 cells
Description: Cytotoxicity of EDT and tiamulin was studied against human hepatocellular carcinoma cells (HepG2) and human embryonic kidney 293T (HEK293T) cells following a protocol as published in our earlier reports[41],[42]. Cells were counted and inoculated into 96-well plates with approximately10^5 cells density for incubating 24 h at 37 °C. […] The same procedure was repeated three times. The percentages of cell viability were calculated by the formula: Cell viability (%) = [Asample ‒ Anegative]/[Apositve ‒ Anegative] × 100%.

## C=CC1(C)CC(OC(=O)CSc2nc(C)c(C(=O)OCC)c(C)n2)C2(C)C(C)CCC3(CCC(=O)C32)C(C)C1O (stereo not shown) [EDT, 14-O-[(5-ethoxycarbonyl-4,6-dimethylpyrimidine-2-yl)thioacetyl] mutilin]
[1]; Staphylococcus aureus, MRSA, read-out: MIC values against 48 strains, range over 48 clinical isolates of MRSA
  MIC: 0.0313 to 0.0625 µg/mL (≈ 0.0546 to 0.109 µM)
[1]; Staphylococcus aureus, MRSA, read-out: strains inhibited
  inhibition at 0.0625 µg/mL: 97.9%
[1]; Staphylococcus aureus, MRSA, strain CX1
  MIC: 0.0313 µg/mL (≈ 0.0546 µM)
[1]; Staphylococcus aureus, MRSA, strain CX2
  MIC: 0.0313 µg/mL (≈ 0.0546 µM)
[1]; Staphylococcus aureus, MRSA, strain CX5
  MIC: 0.0313 µg/mL (≈ 0.0546 µM)
[1]; Staphylococcus aureus, MRSA, strain CX6
  MIC: 0.0313 µg/mL (≈ 0.0546 µM)
[1]; Staphylococcus aureus, MRSA, strain CX7
  MIC: 0.0625 µg/mL (≈ 0.109 µM)
[1]; Staphylococcus aureus, MRSA, strain CX9
  MIC: 0.125 µg/mL (≈ 0.218 µM)
[1]; Staphylococcus aureus, MRSA, strain HG1
  MIC: 0.0313 µg/mL (≈ 0.0546 µM)
[1]; Staphylococcus aureus, MRSA, strain HG2
  MIC: 0.0313 µg/mL (≈ 0.0546 µM)
[1]; Staphylococcus aureus, MRSA, strain HG3
  MIC: 0.0313 µg/mL (≈ 0.0546 µM)
[1]; Staphylococcus aureus, MRSA, strain HG4
  MIC: 0.0313 µg/mL (≈ 0.0546 µM)
[1]; Staphylococcus aureus, MRSA, strain HG5
  MIC: 0.0313 µg/mL (≈ 0.0546 µM)
[1]; Staphylococcus aureus, MRSA, strain HG6
  MIC: 0.0313 µg/mL (≈ 0.0546 µM)
[1]; Staphylococcus aureus, MRSA, strain HG7
  MIC: 0.0625 µg/mL (≈ 0.109 µM)
[1]; Staphylococcus aureus, MRSA, strain QY4
  MIC: 0.0313 µg/mL (≈ 0.0546 µM)
[1]; Staphylococcus aureus, MRSA, strain QY5
  MIC: 0.0313 µg/mL (≈ 0.0546 µM)
[1]; Staphylococcus aureus, MRSA, strain QY6
  MIC: 0.0625 µg/mL (≈ 0.109 µM)
[1]; Staphylococcus aureus, MRSA, strain QY8
  MIC: 0.0313 µg/mL (≈ 0.0546 µM)
[1]; Staphylococcus aureus, MRSA, strain QY10
  MIC: 0.0625 µg/mL (≈ 0.109 µM)
[1]; Staphylococcus aureus, MRSA, strain SH3
  MIC: 0.0313 µg/mL (≈ 0.0546 µM)
[1]; Staphylococcus aureus, MRSA, strain SH4
  MIC: 0.0313 µg/mL (≈ 0.0546 µM)
[1]; Staphylococcus aureus, MRSA, strain SH6
  MIC: 0.0313 µg/mL (≈ 0.0546 µM)
[1]; Staphylococcus aureus, MRSA, strain SH7
  MIC: 0.0625 µg/mL (≈ 0.109 µM)
[1]; Staphylococcus aureus, MRSA, strain SH8
  MIC: 0.0313 µg/mL (≈ 0.0546 µM)
[1]; Staphylococcus aureus, MRSA, strain SH9
  MIC: 0.0313 µg/mL (≈ 0.0546 µM)
[1]; Staphylococcus aureus, MRSA, strain SH10
  MIC: 0.0313 µg/mL (≈ 0.0546 µM)
[1]; Staphylococcus aureus, MRSA, strain SH11
  MIC: 0.0313 µg/mL (≈ 0.0546 µM)
[1]; Staphylococcus aureus, MRSA, strain SH12
  MIC: 0.0313 µg/mL (≈ 0.0546 µM)
[1]; Staphylococcus aureus, MRSA, strain SH13
  MIC: 0.0313 µg/mL (≈ 0.0546 µM)
[1]; Staphylococcus aureus, MRSA, strain SH14
  MIC: 0.0313 µg/mL (≈ 0.0546 µM)
[1]; Staphylococcus aureus, MRSA, strain SH15
  MIC: 0.0313 µg/mL (≈ 0.0546 µM)
[1]; Staphylococcus aureus, MRSA, strain SX5
  MIC: 0.0313 µg/mL (≈ 0.0546 µM)
[1]; Staphylococcus aureus, MRSA, strain SX6
  MIC: 0.0313 µg/mL (≈ 0.0546 µM)
[1]; Staphylococcus aureus, MRSA, strain SX7
  MIC: 0.0313 µg/mL (≈ 0.0546 µM)
[1]; Staphylococcus aureus, MRSA, strain SX8
  MIC: 0.0313 µg/mL (≈ 0.0546 µM)
[1]; Staphylococcus aureus, MRSA, strain SX9
  MIC: 0.0313 µg/mL (≈ 0.0546 µM)
[1]; Staphylococcus aureus, MRSA, strain SX10
  MIC: 0.0313 µg/mL (≈ 0.0546 µM)
[1]; Staphylococcus aureus, MRSA, strain SX16
  MIC: 0.0625 µg/mL (≈ 0.109 µM)
[1]; Staphylococcus aureus, MRSA, strain SX17
  MIC: 0.0313 µg/mL (≈ 0.0546 µM)
[1]; Staphylococcus aureus, MRSA, strain SX18
  MIC: 0.0313 µg/mL (≈ 0.0546 µM)
[1]; Staphylococcus aureus, MRSA, strain ZY1
  MIC: 0.0313 µg/mL (≈ 0.0546 µM)
[1]; Staphylococcus aureus, MRSA, strain ZY2
  MIC: 0.0313 µg/mL (≈ 0.0546 µM)
[1]; Staphylococcus aureus, MRSA, strain ZY3
  MIC: 0.0313 µg/mL (≈ 0.0546 µM)
[1]; Staphylococcus aureus, MRSA, strain ZY4
  MIC: 0.0313 µg/mL (≈ 0.0546 µM)
[1]; Staphylococcus aureus, MRSA, strain ZY5
  MIC: 0.0313 µg/mL (≈ 0.0546 µM)
[1]; Staphylococcus aureus, MRSA, strain ZY6
  MIC: 0.0313 µg/mL (≈ 0.0546 µM)
[1]; Staphylococcus aureus, MRSA, strain ZY7
  MIC: 0.0313 µg/mL (≈ 0.0546 µM)
[1]; Staphylococcus aureus, MRSA, strain ZY8
  MIC: 0.0625 µg/mL (≈ 0.109 µM)
[1]; Staphylococcus aureus, MRSA, strain ZY9
  MIC: 0.0313 µg/mL (≈ 0.0546 µM)
[1]; range over 48 clinical isolates of MRSA
  MIC values against 48 strains: 0.0313 to 0.125 µg/mL
MRSA-337371; 1×, 2×, 4× and 8× MIC
  PAE values, concentration dependence: increased PAE values in a concentration-dependent manner
MRSA-337371; at four tested concentrations (1×, 2×, 4×, 8× MIC)
  PAE values compared with tiamulin: extremely significantly higher than that of tiamulin
[2]
  inhibition of GFP expression (green fluorescence intensity): effectively inhibited the expression of GFP
[3]; HepG2, 100 μM, read-out: cell viability
  viability at 6 h, 100 µM: 99.7%
[3]; HepG2, 200 μM converted to μg/mL
  CC50 at 6 h: > 115 µg/mL
[3]; HepG2, 200 μM, read-out: cell viability
  viability at 6 h, 200 µM: 77.5%
[3]; HepG2, deduced from Fig. 5
  CC50 at 6 h: > 200 µM

Source: article PMC10502144, “Anti-methicillin-resistant Staphylococcus aureus activity and safety evaluation of 14-O-[(5-ethoxycarbonyl-4,6-dimethylpyrimidine-2-yl) thioacetyl] mutilin (EDT)” (Scientific Reports, 2023)
